Experimental data as given in patent US20160024062A1, “ISOXAZOLINE DERIVATIVES FOR CONTROLLING INVERTEBRATE PESTS” (NOVARTIS TIERGESUNDHEIT AG, priority 2011, published 2016).

Tests used:
[1] = system: Rhipicephalus sanquineus nymphs; experiment: Activity in vivo against Rhipicephalus sanquineus nymphs on Mongolian gerbils (spray application); details: engorged nymphs counted seven days after infestation, vs placebo (Abbot's formula)
Protocol: On day 0, gerbils are treated with the test compound at a given dose by spray application. On day +1 (+2), the animals are infested with nymphs of R. sanguineus. Ticks are left on the animals until full repletion. Seven days after infestation nymphs dropped off fully engorged are collected and counted. Efficacy in killing is expressed as a tick number reduction in comparison with a placebo treated group, using the Abbot's formula.

[2] = system: Ctenocephalides felis (cat flea); experiment: Activity in vivo against Ctenocephalides felis (cat flea) on Mongolian gerbils (per oral application); details: dose 3.2 mg/kg, oral gavage, live fleas counted 48 h after infestation, vs placebo (Abbot's formula)
Protocol: On day 0, gerbils are treated orally by gavage with the test compound formulated at a given dose. Immediately after treatment, they are infested with a mixed adult population of cat fleas. Evaluation of efficacy is performed 48 h infestation by counting the numbers of live fleas recovered from the gerbils. Efficacy is expressed as comparison with a placebo treated group using the Abbot's formula.

[3] = system: Ctenocephalides felis (cat flea); experiment: Activity in vivo against Ctenocephalides felis (cat flea) on Mongolian gerbils (spray application); details: live fleas counted 24 h and 48 h after infestation, vs placebo (Abbot's formula)
Protocol: On day 0, gerbils are treated with the test compound at a given dose by spray application. On day +1, the animals are infested with a mixed adult population of cat fleas. Evaluation of efficacy is performed 24 h and 48 h infestation by counting the numbers of live fleas recovered from the gerbils. Efficacy is expressed as comparison with a placebo treated group using the Abbot's formula.

SMILES	Efficacy in killing % ([1]; dose 10 mg/kg)	melting point	Efficacy in killing % [2]	Efficacy in killing % ([3]; dose 10 mg/kg)	Efficacy in killing % ([1]; dose 100 mg/kg)	Efficacy in killing % ([3]; dose 32 mg/kg)
Cc1oc(C2=NOC(c3cc(Cl)cc(Cl)c3)(C(F)(F)F)C2)cc1C(=O)NCC(=O)NCC(F)(F)F (stereo not drawn) [Compound 1.19, 5-(5-(3,5-dichlorophenyl)-5-(trifluoromethyl)-4,5-dihydroisoxazol-3-yl)-2-methyl-N-(2-oxo-2-((2,2,2-trifluoroethyl)amino)ethyl)furan-3-carboxamide]	100%	172 to 174 °C	99%	94%		
Cc1sc(C2=NOC(c3cc(Cl)cc(Cl)c3)(C(F)(F)F)C2)cc1C(=O)NCC(=O)NCC#N (stereo not drawn) [Compound 1.32, N-(2-((cyanomethyl)amino)-2-oxoethyl)-5-(5-(3,5-dichlorophenyl)-5-(trifluoromethyl)-4,5-dihydroisoxazol-3-yl)-2-methylthiophene-3-carboxamide]					85%	96%
